Measurements from patent US20160046616A1, “NRF2 SMALL MOLECULE INHIBITORS FOR CANCER THERAPY” (THE JOHNS HOPKINS UNIVERSITY, priority 2013, published 2016).

How the values were obtained:
Type in all cases: cell-based
[1] = system: H838 NRF2-ARE-Fluc stable cell line; experiment: H838 Nrf2 assay: NRF2-ARE firefly luciferase reporter gene assay; settings: Homo sapiens, NCI-H838, read-out: Potency of inhibition, H838
Text: H838 is a NSCLC cell line with LOF Keap1 activity and constitutive translocation of NRF2 into the nucleus. A firefly luciferase reporter construct driven by a minimal promoter of NRF2-specific ARE is stably expressed in the H838 cells. This cell line was used as a confirmation assay to make sure hits identified from primary screening and that passed counterscreen assays worked in different cell types with a constitutively active NRF2 pathway (deficiency in Keap1).
This assay was very similar to the primary assay except that the cell line was changed. […] The final concentration of DMSO was maintained at 0.46%. Control compounds Budesonide and Staurosporine were both added at a concentration of 2 mM and Budesonide was also added as a 1:10 titration, starting at 200 μM, to achieve dose-response. After an 18-24 hour incubation at 37° C., 95% humidity, and 5% CO2, 1 μL of 5× CellTiter-Fluor non-lytic cell viability assay reagent (Promega, Madison Wis.) was added into the each well of the plates. The plates were then incubated for 30 minutes at room temperature before they were read on a ViewLux plate imager (Perkin Elmer, Waltham Mass.) using an excitation wavelength of 405 nm and an emission wavelength of 525 nm.
Representative compounds were assayed to assess the potency of inhibition in an A549 NRF2-ARE-Fluc stable cell line (A549 Nrf2 assay), in an H838 NRF2-ARE-Fluc stable cell line (H838 Nrf2 assay), and in an H1437 NRF2-ARE-Fluc stable cell line (H1437 Nrf2 assay) (see Table 3).

[2] = system: A549 NRF2-ARE-Fluc stable cell line; experiment: A549 Nrf2 assay: NRF2-ARE firefly luciferase reporter gene assay; settings: Homo sapiens, read-out: Potency of inhibition, A549
Summary of the method: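 A549 cells (Keap1 loss-of-function, constitutive NRF2) stably carrying ARE-driven firefly luciferase; compound treatment 18–24 h at 37 °C, 0.46% DMSO final.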

[3] = system: H1437 NRF2-ARE-Fluc stable cell line; experiment: H1437 Nrf2 assay: NRF2-ARE firefly luciferase reporter gene assay; settings: Homo sapiens, NCI-H1437, H1437 NRF2-ARE-Fluc stable cell line; read-out: Potency of inhibition, H1437

SMILES	IC50 [1]	IC50 [2]	IC50 [3]
COc1ccccc1C(=O)Nc1nc(-c2ccc(S(=O)(=O)N3CCOCC3)cc2)cs1 [Compound 47]	< 5 µM	< 5 µM	< 5 µM
O=C(Nc1ccc(S(=O)(=O)N2CCOCC2)cc1)c1ccc(CN2CCc3ccccc3C2)cc1 [Compound 48]	> 25 µM	< 5 µM	5 to 25 µM
CCN(CC)S(=O)(=O)c1cccc(NC(=O)CNc2cccc(S(=O)(=O)N3CCOCC3)c2)c1 [Compound 49]	> 25 µM	< 5 µM	< 5 µM
Cc1ccccc1C(=O)N1CCc2cc(-c3nc(NC(=O)Cc4ccc(OCCOCCOCCNC(=O)CCCC[C@@H]5SC[C@@H]6NC(=O)N[C@@H]65)cc4)sc3C)ccc21 [Compound 241]	–	> 25 µM	5 to 25 µM
Cc1ccc(C(=O)Nc2ccc(S(=O)(=O)N3CCOCC3)cc2)cc1 [compound 51]	–	5 to 25 µM	> 25 µM
CC1(C)CC2CC(C)(CN2S(=O)(=O)c2ccc(C(=O)Nc3cccc(S(=O)(=O)N4CCOCC4)c3)cc2)C1 (centres unmarked) [compound 52]	–	< 5 µM	< 5 µM
O=C(Nc1ccc(Cl)c(S(=O)(=O)N2CCOCC2)c1)c1ccc(S(=O)(=O)N2CCOCC2)cc1 [compound 55]	–	< 5 µM	< 5 µM
O=C(Nc1ccc(Cl)c(S(=O)(=O)N2CCOCC2)c1)c1ccccc1 [compound 62]	–	5 to 25 µM	5 to 25 µM
O=C(Nc1ccccc1)c1ccc(CN2CCc3ccccc3C2)cc1 [compound 143]	–	5 to 25 µM	> 25 µM
CN1CCN(S(=O)(=O)c2ccc(NC(=O)c3ccc(CN4CCc5ccccc5C4)cc3)cc2)CC1 [compound 146]	–	< 5 µM	> 25 µM
O=C(Nc1ccc(C(=O)N2CCOCC2)cc1)c1ccc(CN2CCc3ccccc3C2)cc1 [compound 147]	–	5 to 25 µM	> 25 µM
O=C(Nc1ccc(S(=O)(=O)N2CCOCC2)cc1)c1ccc(N2CCc3ccccc3C2)cc1 [compound 152]	–	< 5 µM	< 5 µM
O=C(Nc1ccc(S(=O)(=O)N2CCNCC2)cc1)c1ccc(CN2CCc3ccccc3C2)cc1 [compound 154]	–	5 to 25 µM	> 25 µM
CC1CN(S(=O)(=O)c2ccc(NC(=O)c3ccc(CN4CCc5ccccc5C4)cc3)cc2)CC(C)O1 (centres unmarked) [compound 155]	–	< 5 µM	< 5 µM
O=C(Nc1ccc(CN2CCOCC2)cc1)c1ccc(CN2CCc3ccccc3C2)cc1 [compound 163]	–	< 5 µM	> 25 µM
O=C(Nc1ccc(S(=O)(=O)N2CCOCC2c2ccccc2)cc1)c1ccc(CN2CCc3ccccc3C2)cc1 (centres unmarked) [compound 165]	–	< 5 µM	5 to 25 µM
O=C(Nc1ccc(S(=O)(=O)N2CCOCC2)cc1)c1ccc(CCN2CCc3ccccc3C2)cc1 [compound 166]	–	< 5 µM	5 to 25 µM
CN(C1CCOCC1)S(=O)(=O)c1ccc(NC(=O)c2ccc(CN3CCc4ccccc4C3)cc2)cc1 [compound 167]	–	< 5 µM	5 to 25 µM
CN(Cc1ccccc1)Cc1ccc(C(=O)Nc2ccc(S(=O)(=O)N3CCOCC3)cc2)cc1 [compound 168]	–	< 5 µM	< 5 µM
O=C(Nc1ccc(S(=O)(=O)N2CCOC(c3ccccc3)C2)cc1)c1ccc(CN2CCc3ccccc3C2)cc1 (centres unmarked) [compound 171]	–	< 5 µM	> 25 µM
CN(C1COC1)S(=O)(=O)c1ccc(NC(=O)c2ccc(CN3CCc4ccccc4C3)cc2)cc1 [compound 173]	–	< 5 µM	< 5 µM
O=C(Nc1ccc(OC(F)(F)F)cc1)c1ccc(CN2CCc3ccccc3C2)cc1 [compound 178]	–	< 5 µM	< 5 µM
O=C(Nc1ccc(S(=O)(=O)N2CCOCC2)cc1)c1ccc(CN2CCCCC2)cc1 [compound 179]	–	5 to 25 µM	> 25 µM
O=C(Nc1ccc(S(=O)(=O)N2CCC(F)(F)CC2)cc1)c1ccc(CN2CCc3ccccc3C2)cc1 [compound 188]	–	< 5 µM	< 5 µM
CN(C(=O)c1ccc(CN2CCc3ccccc3C2)cc1)c1ccc(S(=O)(=O)N2CCOCC2)cc1 [compound 225]	–	5 to 25 µM	> 25 µM
CC(c1ccc(C(=O)Nc2ccc(S(=O)(=O)N3CCOCC3)cc2)cc1)N1CCc2ccccc2C1 (centres unmarked) [compound 226]	–	< 5 µM	< 5 µM

Continued, values first:

IC50 [1]	IC50 [2]	IC50 [3]	SMILES
> 25 µM	< 5 µM	> 25 µM	Cc1ccc(C(=O)Nc2nc(-c3ccccn3)cs2)cc1S(=O)(=O)N1CCOCC1 [Compound 50]
–	5 to 25 µM	< 5 µM	Cc1ccccc1C(=O)N1CCc2cc(-c3nc(NC(=O)Cc4cccc(OCCOCCOCCNC(=O)CCCC[C@@H]5SC[C@@H]6NC(=O)N[C@@H]65)c4)sc3C)ccc21 [Compound 240]
–	< 5 µM	5 to 25 µM	CC1(C)CC2CC(C)(CN2S(=O)(=O)c2ccc(C(=O)Nc3ccc(Cl)cc3)cc2)C1 (centres unmarked) [compound 53]
–	< 5 µM	< 5 µM	O=C(Nc1ccc(Cl)c(S(=O)(=O)N2CCOCC2)c1)c1ccc(S(=O)(=O)N2CCCCC2)cc1 [compound 54]
–	5 to 25 µM	> 25 µM	O=C(Nc1cccc(S(=O)(=O)N2CCOCC2)c1)c1ccc(CN2CCc3ccccc3C2)cc1 [compound 119]
–	< 5 µM	< 5 µM	CC(C)(C)OC(=O)N1CCN(S(=O)(=O)c2ccc(NC(=O)c3ccc(CN4CCc5ccccc5C4)cc3)cc2)CC1 [compound 144]
–	< 5 µM	> 25 µM	O=C(Nc1ccc(S(=O)(=O)N2CCCC2)cc1)c1ccc(CN2CCc3ccccc3C2)cc1 [compound 145]
–	< 5 µM	> 25 µM	CN(C)[S+](=O)([O-])c1ccc(NC(=O)c2ccc(CN3CCc4ccccc4C3)cc2)cc1 [compound 148]
–	< 5 µM	> 25 µM	O=C(Nc1ccc(N2CCOCC2)cc1)c1ccc(CN2CCc3ccccc3C2)cc1 [compound 149]
–	< 5 µM	< 5 µM	CCN(CC)S(=O)(=O)c1ccc(NC(=O)c2ccc(CN3CCc4ccccc4C3)cc2)cc1 [compound 153]
–	> 25 µM	> 25 µM	O=C(Nc1ccc([S+](=O)([O-])O)cc1)c1ccc(CN2CCc3ccccc3C2)cc1 [compound 156]
–	< 5 µM	< 5 µM	CC1CN(S(=O)(=O)c2ccc(NC(=O)c3ccc(CN4CCc5ccccc5C4)cc3)cc2)CCO1 (centres unmarked) [compound 169]
–	< 5 µM	< 5 µM	O=C(Nc1ccc(S(=O)(=O)N2CCOCC2)cc1)c1ccc(CN2CCCc3ccccc32)cc1 [compound 172]
–	< 5 µM	> 25 µM	COCCN(C)S(=O)(=O)c1ccc(NC(=O)c2ccc(CN3CCc4ccccc4C3)cc2)cc1 [compound 174]
–	< 5 µM	5 to 25 µM	O=C(Nc1ccc(S(=O)(=O)NC2CCOCC2)cc1)c1ccc(CN2CCc3ccccc3C2)cc1 [compound 176]
